Measured values published in the supplement of paper PMC10307832.

Key:
Experiment in all cases: relative viability (nuclei count vs DMSO), 5 days (fraction); higher = more cells survive
[1] = compound: CCOc1cc2ncc(C#N)c(Nc3ccc(OCc4ccccn4)c(Cl)c3)c2cc1NC(=O)/C=C/CN(C)C [Neratinib] + CCNC(=O)c1noc(-c2cc(C(C)C)c(O)cc2O)c1-c1ccc(CN2CCOCC2)cc1 [Luminespib] (partner 0.01 µM)
Procedure, shortened: (§1)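 Relative viability divides the nuclei count in treated wells by that in vehicle wells. Lung cancer cell lines were seeded in 1536-well plates, dosed by pin tool the next day, and fixed and stained after 5 days in one step with final 0.05% Triton X-100, 1% formaldehyde and 1 ug/ml Hoechst. Dosing was a single drug or a fixed anchor-drug dose plus five library-drug doses (not always all listed) in √10 steps, and values are medians of duplicate plates imaged at 4×.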

[2] = compound: CCOc1cc2ncc(C#N)c(Nc3ccc(OCc4ccccn4)c(Cl)c3)c2cc1NC(=O)/C=C/CN(C)C [Neratinib] + Cc1cc(Nc2cc(N3CCN(C)CC3)nc(Sc3ccc(NC(=O)C4CC4)cc3)n2)n[nH]1 [Tozasertib] (partner 0.1 µM)
Procedure, shortened: as §1

[3] = compound: CCOc1cc2ncc(C#N)c(Nc3ccc(OCc4ccccn4)c(Cl)c3)c2cc1NC(=O)/C=C/CN(C)C [Neratinib] + Cc1nc(NC(=O)N2CCC[C@H]2C(N)=O)sc1-c1ccnc(C(C)(C)C(F)(F)F)c1 [Alpelisib] (partner 2 µM)
Procedure, shortened: as §1

[4] = compound: CCOc1cc2ncc(C#N)c(Nc3ccc(OCc4ccccn4)c(Cl)c3)c2cc1NC(=O)/C=C/CN(C)C [Neratinib] + Cc1nc(Nc2ncc(C(=O)Nc3c(C)cccc3Cl)s2)cc(N2CCN(CCO)CC2)n1 [Dasatinib] (partner 0.075 µM)
Procedure, shortened: as §1

| Cell Line | relative viability ([1]; first compound 0.01 µM) | relative viability ([1]; first compound 0.03162 µM) | relative viability ([1]; first compound 0.1 µM) | relative viability ([1]; first compound 0.3162 µM) | relative viability ([1]; first compound 1 µM) | relative viability ([2]; first compound 0.01 µM) | relative viability ([2]; first compound 0.03162 µM) | relative viability ([2]; first compound 0.1 µM) | relative viability ([2]; first compound 0.3162 µM) | relative viability ([2]; first compound 1 µM) | relative viability ([3]; first compound 0.01 µM) | relative viability ([3]; first compound 0.03162 µM) | relative viability ([3]; first compound 0.1 µM) | relative viability ([3]; first compound 0.3162 µM) | relative viability ([3]; first compound 1 µM) | relative viability ([4]; first compound 0.01 µM) | relative viability ([4]; first compound 0.03162 µM) | relative viability ([4]; first compound 0.3162 µM) | relative viability ([4]; first compound 1 µM) | relative viability ([4]; first compound 0.1 µM) |
| --- | --- | --- | --- | --- | --- | --- | --- | --- | --- | --- | --- | --- | --- | --- | --- | --- | --- | --- | --- | --- |
| 201T | 1.08 | 1.02 | 0.977 | 1.1 | 0.931 | 1.14 | 0.945 | 0.848 | 0.858 | 0.766 | 1.06 | 0.945 | 0.926 | 1.01 | 0.9 | 0.629 | 0.539 | 0.49 | 0.6 | – |
| A-427 | 1.23 | 0.966 | 0.778 | 1.02 | 0.274 | 0.234 | 0.246 | 0.177 | 0.214 | 0.145 | 1.01 | 1.16 | 1.06 | – | 0.521 | 0.895 | 0.74 | 0.673 | 0.571 | 0.734 |
| ABC-1 | 0.337 | 0.659 | 0.405 | 0.315 | 0.278 | 0.206 | 0.139 | 0.177 | 0.146 | 0.185 | 1.16 | 1.04 | 0.726 | 0.904 | 0.384 | 0.638 | – | 0.455 | 0.349 | 0.593 |
| BEN | 0.605 | 0.367 | 0.378 | 0.307 | 0.243 | 0.559 | 0.576 | 0.416 | 0.517 | 0.447 | 1.06 | 1.28 | 0.983 | 1.04 | 0.598 | 0.329 | 0.305 | 0.3 | 0.414 | 0.319 |
| CAL-12T | 0.445 | 0.393 | 0.291 | 0.104 | 0.123 | 0.487 | 0.288 | 0.249 | 0.178 | 0.122 | 1.1 | 1.21 | 0.886 | 0.517 | 0.201 | 0.325 | 0.475 | 0.13 | 0.122 | 0.212 |
| COR-L23 | – | 0.621 | 0.598 | 0.606 | 0.257 | 0.216 | 0.217 | 0.193 | 0.186 | 0.176 | 0.971 | 0.83 | 0.732 | 0.698 | 0.322 | 0.558 | 0.602 | 0.439 | 0.308 | 0.489 |
| COR-L 105 | 0.862 | 0.669 | 0.53 | 0.35 | 0.203 | 0.41 | 0.418 | 0.375 | 0.251 | 0.186 | 1.04 | 0.936 | 0.704 | 0.263 | 0.255 | 0.288 | 0.353 | 0.146 | 0.164 | 0.236 |
| Calu-6 | – | – | – | – | – | – | – | – | – | – | 0.992 | 1.05 | 1.01 | 0.835 | 0.451 | – | – | – | – | – |
| ChaGo-K-1 | 0.753 | 0.672 | 0.604 | 0.595 | – | 0.233 | 0.224 | 0.221 | 0.215 | 0.229 | – | – | – | – | – | 0.561 | 0.62 | 0.571 | 0.544 | 0.555 |
| EKVX | 0.821 | 0.884 | 0.708 | 0.496 | 0.246 | 0.416 | 0.42 | 0.345 | 0.197 | 0.13 | 0.878 | 0.973 | 0.645 | 0.284 | 0.161 | 0.632 | 0.676 | 0.243 | 0.253 | 0.443 |
| EMC-BAC-2 | 1.38 | 1.17 | 1.08 | 0.976 | 0.597 | 0.326 | 0.352 | 0.317 | 0.314 | 0.188 | 0.774 | – | 0.667 | 0.576 | 0.301 | 0.368 | 0.342 | 0.33 | 0.248 | 0.302 |
| EPLC-272H | – | 0.616 | 0.464 | 0.315 | 0.135 | – | 0.204 | 0.267 | 0.269 | 0.203 | 0.962 | 0.87 | 0.699 | 0.71 | 0.352 | – | 0.457 | 0.208 | 0.152 | 0.284 |
| H3255 | 0.949 | 0.765 | 0.669 | 0.387 | 0.211 | 0.759 | 0.721 | 0.423 | 0.233 | 0.236 | 0.706 | – | 0.468 | 0.171 | 0.107 | 0.38 | 0.392 | 0.195 | – | 0.283 |
| HARA | 0.685 | 0.743 | 0.662 | 0.271 | 0.117 | 0.106 | 0.104 | 0.0889 | 0.11 | 0.0872 | – | 0.813 | 0.545 | 0.385 | 0.264 | 0.303 | 0.312 | 0.155 | 0.148 | 0.196 |
| HCC-15 | 0.347 | 0.377 | 0.274 | 0.339 | 0.161 | 0.673 | 0.453 | 0.39 | 0.341 | 0.174 | 0.931 | 0.92 | 0.864 | 0.859 | 0.584 | 0.655 | 0.676 | 0.644 | 0.517 | 0.555 |
| HCC-44 | 1.29 | 1.23 | 0.989 | 1.07 | 0.524 | 1.31 | 1.15 | – | 0.778 | 0.458 | 0.97 | 0.95 | 0.702 | 0.838 | 0.754 | – | – | – | – | – |
| HCC-78 | – | – | – | – | – | 0.584 | 0.373 | 0.401 | 0.379 | 0.238 | 0.359 | 0.344 | 0.329 | 0.254 | 0.225 | 0.5 | 0.363 | 0.292 | 0.276 | 0.342 |
| HCC-366 | – | – | – | – | – | 0.102 | 0.114 | 0.144 | 0.0752 | 0.0557 | 0.716 | 0.418 | 0.402 | – | 0.35 | 0.688 | 0.716 | 0.588 | 0.689 | 0.615 |
